System: AMPKα
Experiment: Time course immunoblot of p-AMPKα (Thr172)/total AMPKα in primary human TM cell lysates
Assay type: cell-based
Conditions: 0.5 mM AICAR, human TM cells
Protocol: Primary human trabecular meshwork (TM) cells were isolated, in accordance with the Declaration of Helsinki, and maintained in culture as described previously.^63 Independent primary human TM cell lines were generated from donors ranging in age from 35 to 72 years and no known history of ocular disease. Cell cultures were maintained, unless otherwise stated, in Dulbecco's modified eagle medium (Life Technologies, Grand Island, N.Y.) containing 20% fetal bovine serum, 1% L-glutamine (2 mM), and gentamicin (0.1 mg/ml) at 37° C. in a 10% CO2 atmosphere. Only TM cells from third through fifth passage were used. All experiments were performed using at least three different primary human TM cell lines.
At the conclusion of each experiment for matricellular and ECM protein detection, conditioned media (CM) from TM cell cultures was harvested and centrifuged at 5000 rpm for 10 minutes at 4° C. The supernatant was then concentrated (Amicon Ultra-4 Filter Unit, 10 kDa; Millipore, Milford, Mass.), and protein content quantified using the DC Protein Assay kit adhering to manufacturer's protocols (Bio-Rad, Hercules, Calif.). For AMPK protein detection, cells were lysed for 3 minutes on ice with cold 1×RIPA buffer containing 0.5% Aprotinin, 0.1% EDTA, 1% EGTA, 0.5% PMSF, and 0.01% Leupeptin. Samples were then centrifuged at 14,000 rpm for 15 minutes at 4° C. and protein content quantified. In all experiments, equal amounts of protein were treated with 6× reducing buffer and boiled for 5 minutes. Samples were then electrophoresed in 10% SDS-polyacrylamide gels, alongside a pre-stained protein marker (Cell Signaling Technology Inc., Danvers, Ma). For conditioned media loading control, the resultant gels were stained with 0.1% Coomassie Brilliant Blue G-250 (Bio-Rad, Hercules Calif.) for 3 hours and were destained with fixing/destaining solution until clear bands were visible and contrasted well with the true blue background. Otherwise, proteins were transferred to nitrocellulose membranes (0.45-μm pore size; Invitrogen). […] The membranes were then washed three times with 1×TBS-T, scanned, and integrated band intensities were calculated using an infrared imaging system (Odyssey; Li-Cor, Lincoln, Nebr.). […]

Compound: NC(=O)c1ncn([C@@H]2O[C@H](CO)[C@@H](O)[C@H]2O)c1N [AICAR, 5-Aminoimidazole-4-carboxamide riboside]
- peak increase of phospho-total AMPK ratio (at 2 hours): greater than 2 fold
- increase of phospho-total AMPK ratio, normalized to the zero time point (within 1 hour): 77%
